Laboratory results taken from the NIST ThermoML archive (doi:10.1016/j.fluid.2011.12.007).

What was measured:
[1] = refractive index (Na D-line) (dimensionless); conditions: 298.15 K; 101.33 kPa; Liquid; Standard Abbe refractometry
[2] = for mass density: 101.33 kPa, Liquid, Vibrating tube method; for surface tension liquid-gas: Maximal bubble pressure
[3] = xn = mol fraction of the nth substance listed; conditions: 303.15 K, Maximal bubble pressure
[4] = Boiling temperature at pressure P; conditions: 101.33 kPa; Liquid; Ebulliometric method (Recirculating still)

CCCCCC [hexane]
Conditions	refractive index
[1]	1.37374

Conditions	mass density [kg/m3]
[2], 298.15 K	655.19

C1CCOCC1 [tetrahydropyran] + CCCCCC
[3]
Conditions	surface tension liquid-gas [mN/m]
x2 = 0	27.1
x2 = 0.045	26.47
x2 = 0.09	25.64
x2 = 0.181	24.39
x2 = 0.282	23.17
x2 = 0.383	22.03
x2 = 0.487	21.13
x2 = 0.589	20.39
x2 = 0.674	19.47
x2 = 0.786	18.77
x2 = 0.899	18.12
x2 = 0.964	17.46

C1CCOCC1 [tetrahydropyran]
Conditions	Boiling temperature at pressure P [°C]	refractive index
[1]	–	1.42
[4]	88.21	–

[2]
Conditions	mass density [kg/m3]	surface tension liquid-gas [mN/m]
283.15 K	–	29.61
288.15 K	–	29.15
293.15 K	–	28.56
298.15 K	879.03	28
303.15 K	–	27.14
308.15 K	–	26.5
313.15 K	–	25.55
318.15 K	–	25.25
323.15 K	–	24.23
328.15 K	–	23.6
333.15 K	–	22.75

CCCCCC [hexane] + C1CCOCC1
Conditions	surface tension liquid-gas [mN/m]
[3], x1 = 1	17.4
